{"source": "patent US20140050810A1", "about": "“ANTI-OBESITY COMPOSITION COMPRISING LYCIUM CHINENSIS LEAF EXTRACT AND BETAINE AS ACTIVE INGREDIENT” (BIONUTRIGEN CO., LTD., priority 2012, published 2014)", "key": {"[1]": {"experiment": "Anti-obesity effect of betaine and Lycium chinensis leaf extract powder in human body", "assay_type": "in vivo", "conditions": "Betaine 3 g twice/day 43 days", "procedure": "In order to evaluate the anti-obesity effect of Lycium chinensis leaf extract powder and betaine, subjects' weight, body mass index (BMI), body fat, body fat percentage, and muscle mass were measured prior to the administration of betaine and Lycium chinensis leaf extract powder. Betaine and Lycium chinensis leaf extract powder were separately dissolved in water and administered at a single dose of 3 g and 10 g, respectively, twice a day just before breakfast and supper.\nIn consideration of their component properties, the Lycium chinensis leaf extract powder, which comprised various components, was administered for 22 days while 43 days was also allocated for the administration of betaine, a single compound. Preventive and therapeutic effects of the two ingredients on obesity were evaluated in view of changes in weight, BMI, body fat, body fat percentage, and muscle mass."}, "[2]": {"tested_on": "high-fat diet-induced obesity models", "experiment": "Weight change in high-fat diet-induced obesity mice", "assay_type": "in vivo, C57BL/6 mice", "conditions": "JBB21 1, LWE 2, JBB21+LWE 1+2 g/kg", "procedure": "(§1) Betaine (JBB21), a Lycium chinensis hot water extract powder (LWE), or a mixture thereof (JBB21+LWE) was orally administered five times a week to high-fat diet-induced obesity models and their effects on obesity, hyperlipidemia and fatty liver were analyzed. JBB21 and LWE were purchased as white and brown powders, respectively, from Bionutrigen, and stored at room temperature before use in the experiment.\n(§2) C57BL/6, specific pathogen-free (SPF) mice (male, six weeks old, Division of Biomedical Research, Korea Research Institute of Bioscience and Biotechnology) were used as the test animals.\n(§3) For comparison, a negative control and an obese group (high fat diet, HFD) were allowed to freely eat a radiation-sterilized control diet (CD, 10% kcal, Research Diets) and a high fat diet (HFD, 60% Kcal, Research Diets, supplied by Central Lab. Animal), respectively, during the administration of JBB21, LWE, or JBB21+LWE.\n(§4) JBB21, LWE, and JBB21+LWE were dissolved in 3.D.W at concentrations of 100 mg/mL, 200 mg/mL, and 100+200 mg/mL, respectively, and each of the solutions was orally administered at a dose of 10 mL/kg five times a week for 56 days.\nThe negative control (CD), the obese group (HFD), and the test groups (JBB21, LWE, and JBB21+LWE) were monitored three times a week for weight change and diet intake before and during administration.\nEach of the solutions of JBB21 and LWE was administered at a single dose of 10 mL/kg five times a week for 56 days. […] The LWE (2 g/kg) group decreased in weight by 6.5% by the last day, but no significant changes in weight had been observed during the test period."}, "[3]": {"tested_on": "high-fat diet-induced obesity models", "experiment": "Subcutaneous fat and total fat in high-fat diet-induced obesity mice", "assay_type": "in vivo, C57BL/6 mice", "conditions": "JBB21 1, LWE 2, JBB21+LWE 1+2 g/kg", "procedure": "as §1, §2, §3, §4\nMeanwhile, subcutaneous fat was also measured.\nIn addition, total fat was measured in the mice administered with JBB21, LWE, or JBB21+LWE."}, "[4]": {"tested_on": "high-fat diet-induced obesity models", "experiment": "Blood leptin, adiponectin and triglyceride levels in high-fat diet-induced obesity mice", "assay_type": "in vivo, C57BL/6 mice", "conditions": "JBB21 1, LWE 2, JBB21+LWE 1+2 g/kg", "procedure": "as §1, §2, §3, §4\nBlood samples taken on 56 days after the administration of a mixture of JBB21 and LWE were placed in heparin-coated tubes and stored on ice, followed by centrifugation at 6,000 rpm for 5 min. The plasma thus obtained was analyzed for levels of blood leptin, a hormone marker for obesity, adiponectin, an anti-obesity hormone, and triglyceride levels, using an automated biochemistry analyzer (AU400, Olympus, Japan). Leptin and adiponectin vary in secretion and function depending on the level of fat accumulated in the body. The preventive and therapeutic effects of the mixture according to the present invention were determined in view of plasma levels of leptin and adiponectin.\nIn this regard, the blood levels of the hormones were measured using Mouse Leptin ELISA kit (Cat. #: MOB00) and Mouse Adiponectin ELISA kit (Cat. #: MRP300), respectively, both commercially available from R&D Systems."}, "[5]": {"tested_on": "high-fat diet-induced obesity models", "experiment": "Effect on liver function: liver weight, hepatic triglyceride, GOT, GPT, pathology in high-fat diet-induced obesity mice", "assay_type": "in vivo, C57BL/6 mice", "procedure": "as §1, §2, §3, §4\nMice administered with JBB21, LWE, and JBB21+LWE were euthanized with CO2 gas and underwent laparotomy to excise the livers therefrom. The livers were weighed with a chemical balance, and compared with those from the control and the obese groups. A part of the liver was frozen in liquid nitrogen (LN2) to measure triglyceride and cholesterol contents while the other part was fixed in formalin for pathological analysis.\nThe frozen liver tissues were homogenized by a homogenizer, followed by centrifugation. The supernatant was analyzed for hepatic triglyceride and cholesterol levels using a triglyceride quantification kit (Cat. #: K622-100), and a cholesterol/cholesteryl ester quantification kit (Cat. #: K603-100), respectively, both commercially available from Biovision.\nFor pathological analysis, the liver tissue fixed in formalin was embedded in a paraffin block, and sectioned, and stained with H&E (Hematoxylin & Eosin) before observation under an optical microscope (FIG. 1)."}, "[6]": {"conditions": "L. chinensis leaf extract powder 10 g twice/day 22 days"}, "[7]": {"conditions": "L. chinensis leaf extract powder 10 g twice/day 22 days, baseline"}, "[8]": {"conditions": "HFD mice, oral five times a week for 56 days"}, "[9]": {"conditions": "compared to the obese group (Vehicle Control)"}, "[10]": {"conditions": "HFD mice, JBB21 1, LWE 2, JBB21+LWE 1+2 g/kg"}, "[11]": {"conditions": "vs. Vehicle Control, JBB21 1, LWE 2, JBB21+LWE 1+2 g/kg"}}, "note": "Values joined by “and” are separate entries in the source; they are usually repeats but may differ in a detail not shown here. Equal values may be shown once. Marks after values point to notes of the source that are not given here.", "data": [{"smiles": "C[N+](C)(C)CC(=O)O", "note": "[JBB21, betaine]", "values": [{"measurement": "BMI, After Administration", "setting": "[1]", "value": 29.3}, {"measurement": "BMI, Reduction", "setting": "[1]", "value": 2.7, "unit": "%"}, {"measurement": "Body Fat, After Administration", "setting": "[1]; [6]", "value": 25.9}, {"measurement": "Body Fat, Change", "setting": "[1]; [6]", "value": -1.7, "unit": "kg"}, {"measurement": "Body Fat, Reduction", "setting": "[1]; [6]", "value": 6.2, "unit": "%"}, {"measurement": "Body Fatness (body fat percentage), After Administration", "setting": "[1]; [6]", "value": 30.7}, {"measurement": "Body Fatness (body fat percentage), Change", "setting": "[1]; [6]", "value": -1, "unit": "%"}, {"measurement": "Body Fatness (body fat percentage), Reduction", "setting": "[1]; [6]", "value": 3.2, "unit": "%"}, {"measurement": "Muscle Mass, After Administration", "setting": "[1]; [6]", "value": 55.5}, {"measurement": "Muscle Mass, Change", "setting": "[1]; [6]", "value": -0.7, "unit": "kg"}, {"measurement": "Muscle Mass, Reduction", "setting": "[1]; [6]", "value": 1.3, "unit": "%"}, {"measurement": "Weight, After Administration", "setting": "[1]; [6]", "value": 84.0, "unit": "kg"}, {"measurement": "Weight, Change", "setting": "[1]; [6]", "value": -3.0, "unit": "kg"}, {"measurement": "Weight, Reduction", "setting": "[1]; [6]", "value": 3.5, "unit": "%"}, {"measurement": "Body Fat, Before Administration", "setting": "[1]; [7]", "value": 27.6}, {"measurement": "Body Fatness (body fat percentage), Before Administration", "setting": "[1]; [7]", "value": 31.7}, {"measurement": "Muscle Mass, Before Administration", "setting": "[1]; [7]", "value": 56.2}, {"measurement": "Weight, Before Administration", "setting": "[1]; [7]", "value": 87.0, "unit": "kg"}, {"measurement": "BMI, Before Administration", "setting": "[1]; baseline", "value": 30.1}, {"measurement": "Weight, day 0 after treatment", "setting": "[2]; day 0, HFD (60% Kcal) mice, oral five times a week, n = 10, in g (unit assumed)", "value": "31.1 ± 1.5"}, {"measurement": "Weight, day 11 after treatment", "setting": "[2]; day 11, HFD (60% Kcal) mice, oral five times a week, n = 10, in g (unit assumed)", "value": "31.9 ± 1.6"}, {"measurement": "Weight IR(%), day 11", "setting": "[2]; day 11, vs. Vehicle Control (obese group)", "value": 5.6, "unit": "%"}, {"measurement": "Weight, day 21 after treatment", "setting": "[2]; day 21, HFD (60% Kcal) mice, oral five times a week, n = 10, in g (unit assumed)", "value": "34.5 ± 1.8"}, {"measurement": "Weight IR(%), day 21", "setting": "[2]; day 21, vs. Vehicle Control (obese group)", "value": 5.8, "unit": "%"}, {"measurement": "Weight, day 30 after treatment", "setting": "[2]; day 30, HFD (60% Kcal) mice, oral five times a week, n = 10, in g (unit assumed)", "value": "36.1 ± 2.3"}, {"measurement": "Weight IR(%), day 30", "setting": "[2]; day 30, vs. Vehicle Control (obese group)", "value": 8.8, "unit": "%"}, {"measurement": "Weight, day 39 after treatment", "setting": "[2]; day 39, HFD (60% Kcal) mice, oral five times a week, n = 10, in g (unit assumed)", "value": "38.4 ± 2.7"}, {"measurement": "Weight IR(%), day 39", "setting": "[2]; day 39, vs. Vehicle Control (obese group)", "value": "9.6* %"}, {"measurement": "Weight, day 51 after treatment", "setting": "[2]; day 51, HFD (60% Kcal) mice, oral five times a week, n = 10, in g (unit assumed)", "value": "40.9 ± 3.1"}, {"measurement": "Weight IR(%), day 51", "setting": "[2]; day 51, vs. Vehicle Control (obese group)", "value": "9.6* %"}, {"measurement": "Weight, day 56 after treatment", "setting": "[2]; day 56, HFD (60% Kcal) mice, oral five times a week, n = 10, in g (unit assumed)", "value": "42.0 ± 3.4"}, {"measurement": "Weight IR(%) / weight loss, day 56 (last day)", "setting": "[2]; day 56, vs. Vehicle Control (obese group)", "value": 9.4, "unit": "%"}, {"measurement": "Subcutaneous Fat", "setting": "[3]; [8]", "value": "2975.4 ± 530.4", "unit": "mg"}, {"measurement": "Total Fat", "setting": "[3]; [8]", "value": "7030.2 ± 947.9", "unit": "mg"}, {"measurement": "Subcutaneous Fat IR(%)", "setting": "[3]; [9]", "value": 14.2, "unit": "%"}, {"measurement": "Total Fat IR(%)", "setting": "[3]; [9]", "value": "4.3% and 4.2%"}, {"measurement": "Leptin IR(%)", "setting": "[4]; [9]", "value": "9.1% and 9.2%"}, {"measurement": "Leptin (blood)", "setting": "[4]; plasma, day 56, HFD mice", "value": 134.3, "unit": "ng/mL"}, {"measurement": "Triglyceride (blood)", "setting": "[4]; plasma, day 56, HFD mice", "value": 74.7, "unit": "mg/dL"}, {"measurement": "Triglyceride (blood) IR(%)", "setting": "[4]; vs. Vehicle Control", "value": 22.3, "unit": "%"}, {"measurement": "Liver Wt", "setting": "[5]; HFD mice, 56 days, JBB21 1, LWE 2, JBB21+LWE 1+2 g/kg", "value": 1511.2, "unit": "mg"}, {"measurement": "liver appearance / hepatic fat deposits (in words)", "setting": "[5]; HFD mice, H&E-stained liver tissue (FIG. 1)", "value": "clean and healthy livers almost free of fat deposits"}, {"measurement": "GOT", "setting": "[5]; [10]", "value": 57.1, "unit": "IU/L"}, {"measurement": "GPT", "setting": "[5]; [10]", "value": 39.8, "unit": "IU/L"}, {"measurement": "GOT IR(%)", "setting": "[5]; compared to the obese group (Vehicle Control), JBB21 1, LWE 2, JBB21+LWE 1+2 g/kg", "value": 59.8, "unit": "%"}, {"measurement": "Hepatic triglyceride", "setting": "[5]; liver homogenate supernatant, HFD mice, JBB21 1, LWE 2, JBB21+LWE 1+2 g/kg", "value": 3.1389, "unit": "nmol/mL"}, {"measurement": "Liver Wt IR(%)", "setting": "[5]; relative to the obese group (Vehicle Control), JBB21 1, LWE 2, JBB21+LWE 1+2 g/kg", "value": 25.4, "unit": "%"}, {"measurement": "GPT IR(%)", "setting": "[5]; [11]", "value": 67.2, "unit": "%"}, {"measurement": "Hepatic triglyceride IR(%)", "setting": "[5]; [11]", "value": 10.8, "unit": "%"}]}]}
